The record followed here is ChEMBL document CHEMBL1201862, “PubChem BioAssay data set” (2004).

A short description of test [1]: AlphaScreen signal interference compounds, dose response, artefact control for ARNT-TACC3 interaction inhibitor project, biochemical, luminescence, cherry-pick (AID 651705).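 Further: AlphaScreen bead proximity signal that flags compounds interfering with the detection technology; potency reflects signal decrease which marks the compound as an assay artifact.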 The class given is functional.
Test [2] deals with Mitochondrial peptide methionine sulfoxide reductase (Bos taurus, UniProt P54149). The class given is functional.
The target in test [3] is Nuclear receptor subfamily 5 group A member 2 (Homo sapiens, UniProt O00482). Format: functional, cell-based.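 Further: HEK293T cells transfected with LRH-1 and a StAR promoter luciferase reporter; potency for inhibitors that lower LRH-1 driven reporter light.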
Nuclear receptor subfamily 5 group A member 2, sequence (O00482 whole entry): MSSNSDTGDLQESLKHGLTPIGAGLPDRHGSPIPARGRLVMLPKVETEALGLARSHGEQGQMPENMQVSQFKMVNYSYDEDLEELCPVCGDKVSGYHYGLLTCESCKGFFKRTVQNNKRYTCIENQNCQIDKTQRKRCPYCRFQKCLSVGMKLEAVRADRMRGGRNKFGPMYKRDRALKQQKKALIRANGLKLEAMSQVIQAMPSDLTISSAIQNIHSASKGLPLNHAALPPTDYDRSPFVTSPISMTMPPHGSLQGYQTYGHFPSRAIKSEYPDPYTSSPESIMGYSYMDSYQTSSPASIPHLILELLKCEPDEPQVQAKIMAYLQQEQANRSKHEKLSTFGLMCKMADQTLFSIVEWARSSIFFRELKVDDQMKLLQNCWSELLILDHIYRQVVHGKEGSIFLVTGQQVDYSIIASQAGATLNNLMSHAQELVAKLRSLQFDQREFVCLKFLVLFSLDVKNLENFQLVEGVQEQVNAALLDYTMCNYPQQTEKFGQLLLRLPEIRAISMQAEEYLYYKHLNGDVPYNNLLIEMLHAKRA
A further test addresses Steroidogenic factor 1 (Homo sapiens, UniProt Q13285). Briefly: Counterscreen for inverse agonists of the liver receptor homolog-1 (LRH-1; NR5A2): Luminescence-based cell-based high throughput dose response assay to identify inverse agonists of the Steroidogenic Factor 1 Nuclear Receptor (SF1; NR5A1). The class given is functional.
A short description of test [4]: StAR promoter reporter inhibition counter-screen, dose response, counter-screen for LRH-1 inverse agonist project, cell-based, luminescence, luciferase reporter (AID 651969). Format: functional.
Test [5] deals with Adenosylmethionine-8-amino-7-oxononanoate aminotransferase (Mycobacterium tuberculosis, UniProt P9WQ81). Put plainly: Mycobacterium tuberculosis BioA enzyme inhibitor Measured in Biochemical System Using Plate Reader - 2163-02_Inhibitor_Dose_CherryPick_Activity. The class given is functional, Mycobacterium tuberculosis UT205.
Adenosylmethionine-8-amino-7-oxononanoate aminotransferase, sequence (P9WQ81 whole entry): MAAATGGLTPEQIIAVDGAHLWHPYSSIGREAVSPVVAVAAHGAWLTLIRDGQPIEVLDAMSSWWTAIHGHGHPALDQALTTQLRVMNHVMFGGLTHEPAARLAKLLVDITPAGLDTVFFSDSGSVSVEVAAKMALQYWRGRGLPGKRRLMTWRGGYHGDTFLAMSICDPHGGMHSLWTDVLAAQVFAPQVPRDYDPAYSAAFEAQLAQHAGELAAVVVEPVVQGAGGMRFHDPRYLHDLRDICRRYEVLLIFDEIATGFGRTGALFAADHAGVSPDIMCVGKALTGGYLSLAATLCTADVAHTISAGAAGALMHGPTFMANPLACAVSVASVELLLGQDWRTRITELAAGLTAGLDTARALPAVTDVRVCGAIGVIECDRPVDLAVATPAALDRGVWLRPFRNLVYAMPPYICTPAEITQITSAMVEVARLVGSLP
The next test concerns the target Cytochrome P450 2D6 (Homo sapiens, UniProt P10635).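 Further: CYP2D6 member of a cytochrome P450 panel assay.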
The next test concerns the target T1, Cytochrome P450 1A2 (Homo sapiens, UniProt P05177).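 Further: PubChem cytochrome P450 panel assay, CYP1A2 panel member.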
T1 sequence (P05177 whole entry): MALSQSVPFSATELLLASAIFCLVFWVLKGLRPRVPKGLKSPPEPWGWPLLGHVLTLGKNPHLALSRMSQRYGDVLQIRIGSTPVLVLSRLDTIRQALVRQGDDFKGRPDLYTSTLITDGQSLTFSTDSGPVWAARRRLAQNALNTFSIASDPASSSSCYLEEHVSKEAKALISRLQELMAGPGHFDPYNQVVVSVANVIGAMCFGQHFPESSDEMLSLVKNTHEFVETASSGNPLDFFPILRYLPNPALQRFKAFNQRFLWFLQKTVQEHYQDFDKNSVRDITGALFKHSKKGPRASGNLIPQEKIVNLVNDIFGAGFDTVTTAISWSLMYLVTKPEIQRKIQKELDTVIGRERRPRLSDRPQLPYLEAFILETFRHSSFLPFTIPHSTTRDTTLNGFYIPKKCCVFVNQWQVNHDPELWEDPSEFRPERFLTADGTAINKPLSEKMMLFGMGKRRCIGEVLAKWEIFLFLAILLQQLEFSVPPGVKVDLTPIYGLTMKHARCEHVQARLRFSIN

For the next test, the target named is Cytochrome P450 3A4 (Homo sapiens, UniProt P08684).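 Further: CYP3A4 tested as one member of a cytochrome P450 panel screen.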
The target in test [6] is T2, Low molecular weight phosphotyrosine protein phosphatase (Homo sapiens, UniProt P24666).
T2 sequence (P24666 whole entry): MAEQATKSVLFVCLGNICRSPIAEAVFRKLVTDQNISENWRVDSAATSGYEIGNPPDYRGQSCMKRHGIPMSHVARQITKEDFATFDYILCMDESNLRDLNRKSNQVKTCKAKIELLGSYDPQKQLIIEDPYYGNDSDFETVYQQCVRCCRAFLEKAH
Format: functional. Particulars: read-out: IC50_Mean.

In test [7] the target is T2, Low molecular weight phosphotyrosine protein phosphatase. Format: functional. Particulars: read-out: IC50_Mean. This is another data set of the same source.
Test [8] deals with T3, Tyrosine-protein phosphatase non-receptor type 22 (Homo sapiens, UniProt Q9Y2R2).
T3 sequence (Q9Y2R2 whole entry): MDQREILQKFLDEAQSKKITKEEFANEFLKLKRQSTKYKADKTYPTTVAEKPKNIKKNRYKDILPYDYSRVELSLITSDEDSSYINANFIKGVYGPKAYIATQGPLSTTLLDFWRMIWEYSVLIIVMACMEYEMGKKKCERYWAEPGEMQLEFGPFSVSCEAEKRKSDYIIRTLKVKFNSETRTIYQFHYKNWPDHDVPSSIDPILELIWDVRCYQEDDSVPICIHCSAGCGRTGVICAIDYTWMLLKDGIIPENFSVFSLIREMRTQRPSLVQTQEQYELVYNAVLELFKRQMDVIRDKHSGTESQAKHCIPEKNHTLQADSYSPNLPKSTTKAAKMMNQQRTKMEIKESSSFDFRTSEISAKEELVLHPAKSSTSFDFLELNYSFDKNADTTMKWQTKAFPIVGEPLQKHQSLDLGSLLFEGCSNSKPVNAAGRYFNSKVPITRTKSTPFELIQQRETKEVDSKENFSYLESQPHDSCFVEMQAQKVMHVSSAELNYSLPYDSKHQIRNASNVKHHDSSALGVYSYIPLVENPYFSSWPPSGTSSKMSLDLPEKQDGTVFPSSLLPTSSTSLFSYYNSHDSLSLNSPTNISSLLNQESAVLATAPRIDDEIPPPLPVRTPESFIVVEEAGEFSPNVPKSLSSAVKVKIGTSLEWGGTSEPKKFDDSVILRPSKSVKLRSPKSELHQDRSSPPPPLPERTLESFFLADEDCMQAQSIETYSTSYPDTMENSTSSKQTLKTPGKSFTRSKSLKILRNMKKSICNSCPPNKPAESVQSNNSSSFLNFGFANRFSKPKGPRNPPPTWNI
Put plainly: LYP phosphatase inhibition for selectivity, dose response, selectivity assay for LMPTP inhibitor project, biochemical, fluorescence, LYP catalytic domain (AID 652006). The note with it: read-out: IC50_Mean. Format: functional.

The test system of another test is HEK293. Briefly: inhibitors of LMP1-driven NF-kB reporter, dose response, cell-based, HEK293, luciferase, cherry-pick (AID 588343). The note with it: Homo sapiens. The class given is functional.
Test [9] in a line: Shn3 3'UTR reporter inhibitors, dose response, cell-based, Clone20 osteoblasts, firefly luciferase, cherry-picked (AID 624132).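 Further: firefly luciferase luminescence from reporter carrying the Shn3 3'UTR in osteoblasts.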 The class given is functional.
Test [10] can be described thus: HepG2 cell cytotoxicity, dose response, cytotoxicity control for Shn3 inhibitor project, CellTiter-Glo, cherry-picked (AID 624134). Format: functional, cell-based.
Test [11] in a line: control 3'UTR Renilla luciferase suppression, dose response, counter-screen for Shn3 inhibitor project, cell-based, Clone20-Shn3RL, cherry-picked (AID 624133). The class given is functional. A general note: The purpose of a counterscreen is to sort out artefacts and off-target activity.
The target in the next test is Mu-type opioid receptor (Homo sapiens, UniProt P35372). Format: functional, cell-based.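 Further: U2OS cells with beta-arrestin recruitment to OPRM1 by beta-gal complementation.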
Mu-type opioid receptor, sequence (P35372 whole entry, the tested form may be a part): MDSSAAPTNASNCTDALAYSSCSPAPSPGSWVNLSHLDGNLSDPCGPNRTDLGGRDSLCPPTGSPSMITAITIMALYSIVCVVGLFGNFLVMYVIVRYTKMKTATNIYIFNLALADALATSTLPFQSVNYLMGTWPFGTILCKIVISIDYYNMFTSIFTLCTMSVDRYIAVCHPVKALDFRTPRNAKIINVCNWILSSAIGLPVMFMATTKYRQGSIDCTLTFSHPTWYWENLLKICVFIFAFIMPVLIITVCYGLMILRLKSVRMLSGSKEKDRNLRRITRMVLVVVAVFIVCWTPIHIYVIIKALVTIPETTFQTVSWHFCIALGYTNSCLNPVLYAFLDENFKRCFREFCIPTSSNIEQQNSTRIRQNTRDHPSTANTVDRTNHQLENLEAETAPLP
For test [12], the target named is T4, Fatty acid synthase (Homo sapiens, UniProt P49327). Put plainly: FAS thioesterase domain inhibitors, dose response, biochemical, endpoint fluorescence intensity, uHTS hits (AID 624327).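 Further: fluorescence from hydrolysis of an O-methyl fluorescein acyl ester substrate by the enzyme.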 The class given is functional.
T4 sequence (P49327 whole entry, the tested form may be a part): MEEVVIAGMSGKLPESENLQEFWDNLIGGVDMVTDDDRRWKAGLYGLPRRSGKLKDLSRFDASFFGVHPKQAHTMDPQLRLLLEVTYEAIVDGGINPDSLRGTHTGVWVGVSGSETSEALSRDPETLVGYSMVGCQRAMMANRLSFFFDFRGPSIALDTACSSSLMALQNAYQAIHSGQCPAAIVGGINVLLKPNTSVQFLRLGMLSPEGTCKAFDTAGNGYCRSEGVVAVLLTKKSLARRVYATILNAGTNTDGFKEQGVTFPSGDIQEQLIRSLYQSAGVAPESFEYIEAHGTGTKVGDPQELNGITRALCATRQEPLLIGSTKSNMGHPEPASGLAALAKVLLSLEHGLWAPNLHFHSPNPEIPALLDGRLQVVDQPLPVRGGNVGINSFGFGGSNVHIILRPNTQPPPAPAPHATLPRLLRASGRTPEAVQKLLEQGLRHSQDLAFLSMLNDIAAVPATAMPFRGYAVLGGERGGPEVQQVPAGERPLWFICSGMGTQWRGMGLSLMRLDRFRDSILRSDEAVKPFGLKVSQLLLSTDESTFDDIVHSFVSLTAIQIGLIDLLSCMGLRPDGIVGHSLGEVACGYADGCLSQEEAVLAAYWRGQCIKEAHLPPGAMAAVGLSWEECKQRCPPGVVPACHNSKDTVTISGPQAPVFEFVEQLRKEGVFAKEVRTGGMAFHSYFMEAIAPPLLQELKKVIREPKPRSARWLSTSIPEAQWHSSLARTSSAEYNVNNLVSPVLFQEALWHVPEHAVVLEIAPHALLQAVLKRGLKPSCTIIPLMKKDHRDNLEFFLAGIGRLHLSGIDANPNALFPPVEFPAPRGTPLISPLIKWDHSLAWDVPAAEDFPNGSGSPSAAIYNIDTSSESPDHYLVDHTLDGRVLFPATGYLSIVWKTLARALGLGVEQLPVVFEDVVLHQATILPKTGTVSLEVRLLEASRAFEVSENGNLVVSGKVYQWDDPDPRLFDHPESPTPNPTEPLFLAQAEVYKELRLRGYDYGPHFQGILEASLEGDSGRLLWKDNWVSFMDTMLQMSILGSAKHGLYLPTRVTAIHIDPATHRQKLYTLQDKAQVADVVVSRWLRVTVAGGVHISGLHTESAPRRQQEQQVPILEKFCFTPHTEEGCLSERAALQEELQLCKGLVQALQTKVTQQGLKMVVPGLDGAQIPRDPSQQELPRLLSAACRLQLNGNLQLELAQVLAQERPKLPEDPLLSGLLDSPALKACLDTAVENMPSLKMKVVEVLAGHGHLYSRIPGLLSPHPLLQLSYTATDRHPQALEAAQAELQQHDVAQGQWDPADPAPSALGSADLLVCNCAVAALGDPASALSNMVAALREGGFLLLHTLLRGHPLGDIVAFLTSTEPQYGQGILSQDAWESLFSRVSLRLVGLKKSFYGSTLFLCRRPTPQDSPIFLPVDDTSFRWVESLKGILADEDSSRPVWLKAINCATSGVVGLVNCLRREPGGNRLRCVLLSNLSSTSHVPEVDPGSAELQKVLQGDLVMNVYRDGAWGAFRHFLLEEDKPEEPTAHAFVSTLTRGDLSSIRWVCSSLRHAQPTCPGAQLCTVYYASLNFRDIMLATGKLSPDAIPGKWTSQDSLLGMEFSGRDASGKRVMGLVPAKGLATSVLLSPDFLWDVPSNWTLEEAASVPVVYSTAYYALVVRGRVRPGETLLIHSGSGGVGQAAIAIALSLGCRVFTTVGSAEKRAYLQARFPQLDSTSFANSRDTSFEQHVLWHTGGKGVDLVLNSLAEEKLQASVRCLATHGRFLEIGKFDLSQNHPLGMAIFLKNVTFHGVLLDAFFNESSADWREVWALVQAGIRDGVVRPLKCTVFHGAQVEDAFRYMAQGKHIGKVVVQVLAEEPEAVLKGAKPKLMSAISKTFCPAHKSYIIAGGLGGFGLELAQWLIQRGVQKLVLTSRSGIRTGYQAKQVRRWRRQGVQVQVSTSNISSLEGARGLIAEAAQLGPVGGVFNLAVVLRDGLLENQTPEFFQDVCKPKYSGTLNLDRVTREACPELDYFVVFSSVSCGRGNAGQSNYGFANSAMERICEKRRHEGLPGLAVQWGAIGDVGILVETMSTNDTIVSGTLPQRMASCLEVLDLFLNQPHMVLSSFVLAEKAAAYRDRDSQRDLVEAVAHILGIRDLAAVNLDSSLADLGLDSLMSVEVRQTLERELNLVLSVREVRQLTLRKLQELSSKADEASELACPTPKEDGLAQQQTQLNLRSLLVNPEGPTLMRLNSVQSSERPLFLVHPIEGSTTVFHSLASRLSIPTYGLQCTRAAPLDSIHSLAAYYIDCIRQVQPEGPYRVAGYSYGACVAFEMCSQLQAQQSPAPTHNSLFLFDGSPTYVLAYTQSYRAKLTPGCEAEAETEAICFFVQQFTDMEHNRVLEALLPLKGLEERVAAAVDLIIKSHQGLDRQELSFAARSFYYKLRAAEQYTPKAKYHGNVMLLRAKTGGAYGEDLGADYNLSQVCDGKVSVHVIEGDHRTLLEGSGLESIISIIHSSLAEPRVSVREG
Test [13] deals with 5-hydroxytryptamine receptor 2A (Mus musculus, UniProt P35363). The class given is functional, cell-based.
The target in test [14] is T5, Interleukin-8 (Homo sapiens, UniProt P10145).
T5 sequence (P10145 whole entry): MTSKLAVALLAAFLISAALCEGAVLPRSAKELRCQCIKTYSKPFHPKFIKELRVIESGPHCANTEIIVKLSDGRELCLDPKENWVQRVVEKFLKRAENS
Briefly: Dose Response confirmation of uHTS small molecule hits for cystic fibrosis induced NFkb Inhibitors in a TNFa-induced IL8 counterscreen. Particulars: read-out: IC50_Mean. Format: functional.

Test [15] has as its target T5, Interleukin-8. Put plainly: Dose Response confirmation of uHTS small molecule hits for cystic fibrosis induced NFkb Inhibitors in a PAF-induced IL8 counterscreen. The note with it: read-out: IC50_Mean. Format: functional.
The target of test [16] is T4, Fatty acid synthase. Put plainly: FAS thioesterase domain inhibitors, dose response, biochemical, kinetic fluorescence intensity (AID 624326).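 Further: rate of fluorescence rise from hydrolysis of a fluorogenic O-methyl fluorescein ester substrate.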 The class given is functional.

SMILES strings stand for the structures. Calls of active or inactive are those of the source. A value given as a limit tells only on which side of the number the result lay.

Steroidogenic factor 1, sequence (Q13285 whole entry): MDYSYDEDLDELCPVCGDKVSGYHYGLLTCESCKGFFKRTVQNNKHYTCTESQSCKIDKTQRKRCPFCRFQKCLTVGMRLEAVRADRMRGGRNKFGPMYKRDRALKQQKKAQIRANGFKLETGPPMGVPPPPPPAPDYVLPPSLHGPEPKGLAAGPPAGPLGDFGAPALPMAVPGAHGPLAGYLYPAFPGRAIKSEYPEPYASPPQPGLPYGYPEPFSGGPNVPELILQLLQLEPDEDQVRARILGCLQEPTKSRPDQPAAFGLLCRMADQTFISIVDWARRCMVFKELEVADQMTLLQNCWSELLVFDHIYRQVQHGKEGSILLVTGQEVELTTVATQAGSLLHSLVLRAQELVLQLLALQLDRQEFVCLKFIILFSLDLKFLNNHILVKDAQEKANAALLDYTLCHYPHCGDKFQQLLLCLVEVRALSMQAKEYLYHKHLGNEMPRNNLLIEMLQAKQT
Cytochrome P450 2D6, sequence (P10635 whole entry): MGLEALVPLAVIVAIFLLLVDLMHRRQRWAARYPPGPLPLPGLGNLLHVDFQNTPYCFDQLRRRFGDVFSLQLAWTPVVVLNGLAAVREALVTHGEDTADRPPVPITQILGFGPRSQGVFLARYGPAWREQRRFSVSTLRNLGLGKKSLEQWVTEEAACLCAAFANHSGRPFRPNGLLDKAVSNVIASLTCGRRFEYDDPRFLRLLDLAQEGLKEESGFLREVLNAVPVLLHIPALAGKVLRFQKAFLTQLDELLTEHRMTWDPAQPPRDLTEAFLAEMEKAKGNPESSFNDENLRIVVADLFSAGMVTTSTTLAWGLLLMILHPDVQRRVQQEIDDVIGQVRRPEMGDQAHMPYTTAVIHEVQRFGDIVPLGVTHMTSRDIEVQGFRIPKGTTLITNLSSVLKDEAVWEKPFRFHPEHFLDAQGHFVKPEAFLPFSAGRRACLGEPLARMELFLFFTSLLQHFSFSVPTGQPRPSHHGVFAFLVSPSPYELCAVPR

Turning to `CCCCCC/C=N/Nc1nnc(Cc2ccc(OC)c(OC)c2)c(O)n1`, the AC50 in test [1] was 132 µM (active).
Turning to `CCCCCOC(=O)C(C)c1c(C)nc(S)nc1O` (configuration not stated), the IC50 in [2] was 115 µM (inactive).
`CCOCC(=O)Nc1ccc(S(=O)(=O)NCCc2ccccc2)cc1`: the IC50 in test [3] is 18.4 µM (inactive); at Steroidogenic factor 1 it was 5.7 µM (active); in test [4], 35.9 µM (inactive).
With `Cc1ccc(Cc2c(C)nc3nc(SCC(=O)NCc4ccco4)nn3c2C)cc1`, the AC50 was 4.86 µM (active) in [5], 25.1 µM (inconclusive) at Cytochrome P450 2D6, 6.31 nM (inconclusive) on Cytochrome P450 1A2 and 3.16 µM (inconclusive) on Cytochrome P450 3A4.
Take `COc1cccc(N2CCN(C(=O)c3ccc(CSc4nc5cc[nH]cc-5n4)cc3)CC2)c1`: the results for the IC50 in test [6], in [7] and in test [8] were > 80 µM (inactive), 14.3 µM (active) and 65 µM (inactive), respectively.
On to `O=[N+]([O-])c1ccc2ncnc(N3CCN(Cc4ccc5c(c4)OCO5)CC3)c2c1`, for which the AC50 in the test on HEK293 was 5.4 µM (active); in test [9] it was 2.73 µM (active); in test [10], 35.6 µM (active); in [11], 26.5 µM (active). Moreover, the EC50 at Mu-type opioid receptor was 92.5 µM (inactive); in test [13] it was 3.78 µM (active). Moreover, the IC50 at Fatty acid synthase [12] is 1.39 µM (active); on Interleukin-8 [14], 40.4 µM (inactive); on Interleukin-8 [15], 47.9 µM (inactive); on Fatty acid synthase [16] it was 843 nM (active).

One may read the AC50 as the concentration at which the activity in the assay is half-maximal. The EC50 is the concentration giving half of the maximal effect.
